Entries after “also recorded” stand apart in the source; their conditions may differ.

Experimental findings from patent publication US20240024436A1, “METHOD FOR TREATING CANCER” (CHILDREN'S MEDICAL CENTER CORPORATION, priority 2022, published 2024) are described below.

Assay [1] concerns the target T1, G6PD (Homo sapiens, UniProt P11413).
T1 construct: endogenous in cells; host or cells: HCT-15 and HT-29 colorectal cancer cell lines
Briefly: G6PD activity assay in colorectal cell lines treated with G6PDi. Type of assay: cell-based. As to conditions: HCT-15 and HT-29 treated with G6PDi at the indicated concentrations. How it is done:
(§1) FIG. 3a colorectal cell lines, HCT-15 and HT-29 were treated with small molecule inhibitor G6PDi at the indicated concentrations and activity of G6PD was assessed. FIGS. 3b-3c Colorectal cancer cell lines, HCT-15 (FIG. 3b) and […] (FIG. 3c) were treated with vehicle or G6PDi-1 (30 μM) and with the indicated doses of asparaginase. Relative viability was assessed by counting viable cells based on trypan blue vital dye staining, with cell counts normalized to those in cells with no-asparaginase controls.

For assay [2], the system named is NADP/NADPH ratio in HCT-15 cells. Briefly: NADP/NADPH ratio, NADP/NADPH Assay Kit (colorimetric, OD 450 nm). Type of assay: cell-based, human. As to the method:
FIG. 8a, HCT-15 cells were transduced with the indicated shRNAs and with the indicated doses of asparaginase, and the ratio of NADP to NADPH was measured using the NADP/NADPH Assay Kit (abcam product #ab65349). Relative NADP/NADPH ratio was assessed by microplate reader based on colorimetric signals (OD 450 nm), with colorimetric signal normalized to those in shLuc cells with no-asparaginase controls. FIG. 8b, the colorectal cancer cell line HCT-15 was treated with vehicle, asparaginase (500 U/L), G6PDi-1 (30 μM) or combination treatment. […] was measured by NADP/NADPH Assay Kit (ab65349) in indicated cells. Relative NADP/NADPH ratio was assessed by microplate reader based on colorimetric signals (OD 450 nm), with colorimetric signal normalized to those in shLuc cells with no-asparaginase controls.

Assay [3] relates to Apc-deficient organoids with mutations of Tp53 and Kras. Briefly: Organoid viability (counting viable organoids). Type of assay: cell-based, mouse. As to conditions: 500 U/L asparaginase + 100 μM G6PDi-1, basal medium. How it is done: FIG. 4a Apc-deficient organoids with mutations of Tp53 and Kras were cultured in basal medium and treated with vehicle, asparaginase (500 U/L), G6PDi-1 (100 μM), or combo (500 U/L asparaginase+100 μM G6PDi-1). FIG. 4b Viability of organoids from FIG. 4a was assessed by counting viable organoids. Data is relative to vehicle treatment group.

In assay [4] the test system is colorectal cancer cell lines HCT-15 and HT-29. Briefly: Relative viability (trypan blue viable cell counts) with G6PDi-1 plus asparaginase. Type of assay: cell-based, human. Particulars: G6PDi-1 30 μM with indicated doses of asparaginase. How it is done: as §1
The subject of assay [5] is NADP/NADPH ratio in HCT-15 G6PD knock-out cells. Briefly: NADP/NADPH ratio by liquid chromatography/mass spectrometry in G6PD knock-out clones. The assay is classed as cell-based, human. Particulars: HCT-15 G6PD knock-out clones #1 and #2, asparaginase 500 U/L. As to the method: HCT-15 cells that were either G6PD wild-type (WT) parental cells, or G6PD knock-out clones #1 and #2, were treated by vehicle or asparaginase (500 U/L). NADP/NADPH ratio was measured by liquid chromatography/mass spectrometry, and levels are shown normalized to those in HCT-15 cells with no-asparaginase controls.

Assay [6] has as its system HCT-15 colorectal cancer cells. As to the kind of experiment: Relative viability of HCT-15 cells with CRISPR interference of RPIA and RPE, treated with asparaginase. Type of assay: cell-based, human. Particulars: HCT-15 with dCas9-KRAB and guide RNAs targeting RPIA and RPE promoters. How it is done:
HCT-15 colorectal cancer cells were transduced with a so-called CRISPR interference system, consisting of a dCas9-KRAB expression construct and guide RNAs targeting the promoters of RPIA and RPE, to inhibit expression of these enzymes. Cells were then treated with vehicle or asparaginase at the indicated doses. Relative viability was assessed by counting viable cells based on trypan blue vital dye staining, with cell counts normalized to those in cells with no-asparaginase controls.

The test system of assay [7] is ROS levels in HCT-15 cells. Briefly: Reactive oxygen species levels, Cellular ROS Assay Kit. Particulars: G6PD deficient (shG6PD #1 and #2) HCT-15 cells, indicated doses. The assay is classed as cell-based, human. As to the method:
HCT-15 cells were transduced with negative control shRNA (shLuciferase, shLuc) or with two distinct G6PD-targeting shRNAs (shG6PD #1 and #2), treated with asparaginase at the indicated doses, and reactive oxygen species (ROS) levels were assessed using the Cellular ROS Assay Kit (Abcam, product number ab113851) in shLuc (control). ROS levels were measured by fluorescence microplate reader, and were normalized to those in shLuc-transduced, no-asparaginase controls. […] Results are shown as means±SEM; n=3. ****P<0.0001.

Assay [8] has as its system HCT-15 colorectal cancer cell line. As to the kind of experiment: Relative viability of G6PD knock-out HCT-15 clones treated with asparaginase. The assay is classed as cell-based, human. Particulars: G6PD knock-out (KO) clones of HCT-15 versus wild-type. As to the method:
FIG. 5a, Western blot analysis of G6PD protein expression levels in parental HCT-15 cells (G6PD wild-type) and two distinct G6PD knock-out (KO) clones generated by CRISPR-Cas9 induced gene deletion. FIG. 5b, control (G6PD wild-type) or G6PD knockout (KO) clones of the HCT-15 colorectal cancer cell line were treated with asparaginase at the indicated doses, and relative cell viability was assessed by counting the number of live cells based on trypan blue vital dye staining, with cell counts normalized to those in cells with no-asparaginase controls.

In assay [9] the test system is mouse intestinal organoid models of colorectal cancer. As to the kind of experiment: Subcutaneous AKP organoid tumors in immunodeficient mice, tumor volume. Type of assay: in vivo. Particulars: G6pdx-deficient (shG6pdx) organoid tumors, asparaginase 1,000 U/kg. The source says: Left panel, Mouse intestinal organoids with Apc deficiency, Kras activating mutations, and Tp53 loss (so-called AKP organoids) were transduced with two distinct control shRNAs (shGFP and shLuciferase), or two distinct shRNAs targeting G6pdx (the mouse G6PD gene). Knockdown of G6pdx protein expression was confirmed by Western blot analysis.
Organoids were transduced with control (shLuc) and two distinct shG6pdx-targeting shRNAs (see FIG. 10), and injected subcutaneously into immunodeficient mice. After engraftment of tumors (defined as tumors reaching a volume of 150 mm3), mice were treated with vehicle (phosphate-buffered saline, PBS) or asparaginase (1,000 U/kg), and tumor volumes were followed. Asparaginase or PBS were re-dosed at the time points indicated by the black arrows.

T1 sequence (P11413 whole entry): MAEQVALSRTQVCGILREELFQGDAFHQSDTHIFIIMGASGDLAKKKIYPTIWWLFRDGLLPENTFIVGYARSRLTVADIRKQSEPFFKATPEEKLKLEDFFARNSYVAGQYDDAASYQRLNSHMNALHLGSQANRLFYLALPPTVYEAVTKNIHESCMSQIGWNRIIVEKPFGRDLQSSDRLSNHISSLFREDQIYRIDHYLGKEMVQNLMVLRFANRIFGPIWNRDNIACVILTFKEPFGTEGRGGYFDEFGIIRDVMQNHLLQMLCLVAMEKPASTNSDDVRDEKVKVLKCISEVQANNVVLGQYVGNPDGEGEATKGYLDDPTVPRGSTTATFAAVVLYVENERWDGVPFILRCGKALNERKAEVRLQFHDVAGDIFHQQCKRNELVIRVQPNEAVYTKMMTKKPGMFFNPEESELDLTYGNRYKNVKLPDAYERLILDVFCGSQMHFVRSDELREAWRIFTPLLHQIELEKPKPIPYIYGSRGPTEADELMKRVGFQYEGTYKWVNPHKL

As to G6PDi-1, in assay [1], the G6PD activity result was “reduce G6PD activity”. Further, the “relative NADP/NADPH ratio on G6PD inhibition” value in assay [2] (HCT-15 cells, G6PDi-1 30 μM) is “increased”. Also, in assay [3], the “asparaginase sensitivity in organoids (viable organoids relative to vehicle)” value is “induce asparaginase sensitivity”. The “sensitivity to asparaginase (relative viability)” value in [4] is given as “induce sensitivity to asparaginase”.

For asparaginase, the “NADP/NADPH ratio on asparaginase treatment (LC/MS)” value in assay [5] is on record as “further increase of NADP/NADPH ratio”. Also, the “relative NADP/NADPH ratio on asparaginase treatment” value in assay [2] (HCT-15 cells depleted of G6PD (shRNA or G6PDi-1 30 μM), asparaginase 500 U/L or indicated doses) is given as “further increased the NADP/NADPH ratio; also recorded: further increase of NADP/NADPH ratio”. The “relative viability on asparaginase treatment” value in assay [6] is “None of the differences were statistically significant”. Besides, the “reactive oxygen species levels on asparaginase treatment” value in assay [7] is on record as “not further elevated”. Moreover, the “asparaginase sensitivity (relative cell viability)” value in assay [8] was “induces asparaginase sensitivity”. Besides, the “tumor volume / therapeutic activity” value in assay [9] is recorded as “tumor volumes were reduced; also recorded: significant therapeutic activity”.
